{"source": "paper PMC3898987", "about": "(Bioorganic & Medicinal Chemistry, 2013)", "key": {"[1]": {"biological_target": "T1, 5-HT3AB receptor, 5-HT3B subunit I183A (Homo sapiens, UniProt O95264+P46098, I176A)", "T1 sequence (P46098 24-478)": "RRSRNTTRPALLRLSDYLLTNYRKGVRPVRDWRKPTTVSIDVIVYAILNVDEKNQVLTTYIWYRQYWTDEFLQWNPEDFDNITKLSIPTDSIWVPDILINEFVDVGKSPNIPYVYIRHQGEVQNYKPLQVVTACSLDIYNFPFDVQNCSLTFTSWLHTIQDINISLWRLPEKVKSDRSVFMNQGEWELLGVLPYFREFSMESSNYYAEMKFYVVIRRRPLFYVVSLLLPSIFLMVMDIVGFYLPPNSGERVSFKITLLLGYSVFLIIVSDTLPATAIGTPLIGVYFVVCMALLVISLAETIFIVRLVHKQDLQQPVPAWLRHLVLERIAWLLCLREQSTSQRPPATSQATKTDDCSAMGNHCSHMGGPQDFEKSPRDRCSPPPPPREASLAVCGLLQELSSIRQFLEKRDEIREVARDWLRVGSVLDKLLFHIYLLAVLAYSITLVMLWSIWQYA", "T1 sequence (O95264 22-441 I176A)": "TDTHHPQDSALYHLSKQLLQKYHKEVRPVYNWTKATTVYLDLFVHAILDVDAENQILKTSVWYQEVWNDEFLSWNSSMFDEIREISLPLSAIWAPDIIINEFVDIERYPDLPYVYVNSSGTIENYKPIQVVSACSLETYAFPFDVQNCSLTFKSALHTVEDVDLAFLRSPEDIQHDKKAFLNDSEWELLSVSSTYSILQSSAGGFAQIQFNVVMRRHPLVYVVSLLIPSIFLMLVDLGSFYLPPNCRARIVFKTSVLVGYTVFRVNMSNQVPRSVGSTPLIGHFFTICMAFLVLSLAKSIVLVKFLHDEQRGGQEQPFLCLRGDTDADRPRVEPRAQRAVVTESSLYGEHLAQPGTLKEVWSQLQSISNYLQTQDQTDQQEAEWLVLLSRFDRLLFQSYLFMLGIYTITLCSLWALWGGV", "test": "cell-based", "method": "For FlexStation assays, transfected cells were plated on 96-well plates and incubated 1–2 days before assay.\nFluorometric studies were undertaken using a FlexStation® (Molecular Devices, Sunnyvale, CA, USA) as previously described.[11]\nFluorescence was measured every 2 s for 200 s. […] Concentration–response and inhibition curves were obtained for each mutant, and the fluorescence values were normalized to the maximal response."}, "WT 5-HT3A receptor": {"biological_target": "T2, WT 5-HT3A receptor (Homo sapiens, UniProt P46098)", "T2 sequence (P46098 24-478)": "T1 sequence (P46098 24-478)", "test": "radioligand saturation binding, transfected HEK293 membranes", "conditions": "[3H]-palonosetron saturation, 4 °C, 24 h", "method": "(§1) Human embryonic kidney (HEK) 293 cells were cultured on 90 mm tissue culture plates at 37 °C and 7% CO2 in a humidified atmosphere. They were grown in DMEM:F12 (Dulbecco’s Modified Eagle’s Medium/Nutrient Mix F12 (1:1)) with GlutaMAX I™ containing 10% fetal calf serum and passaged when confluent. For radioligand binding studies, cells in 90 mm dishes were transfected at 60–70% confluency using polyethyleneimine and incubated for 3–4 days before use. For FlexStation assays, transfected cells were plated on 96-well plates and incubated 1–2 days before assay. […]\n(§2) Eight-point binding assays were performed to produce saturation binding curves. […] Radioactive counts were measured using a Beckman LS6000SC liquid scintillation counter (Fullerton, California, USA).\n(§3) Data were analyzed by iterative curve fitting using GraphPad Prism v5 (San Diego, CA) according to the following equation: B=Bmax[L]^n/kdn+[L]^n where B is the amount of bound radioligand, Bmax is the maximum specific binding at equilibrium, [L] is the concentration of radioligand, Kd is the equilibrium dissociation constant of the radioligand, and n is the Hill coefficient."}, "5-HT3A receptor Y73S": {"biological_target": "T3, 5-HT3A receptor Y73S (Homo sapiens, UniProt P46098, Y68S)", "T3 sequence (P46098 24-478 Y68S)": "T1 sequence (P46098 24-478) with Y45S", "test": "radioligand saturation binding, transfected HEK293 membranes", "conditions": "[3H]-palonosetron saturation, 5-HT3A Y73S, 4 °C, 24 h", "method": "as §1, §2, §3"}, "5-HT3A receptor S163A": {"biological_target": "T4, 5-HT3A receptor S163A (Homo sapiens, UniProt P46098, S158A)", "T4 sequence (P46098 24-478 S158A)": "T1 sequence (P46098 24-478) with S135A", "test": "radioligand saturation binding, transfected HEK293 membranes", "conditions": "[3H]-palonosetron saturation, 5-HT3A S163A, 4 °C, 24 h", "method": "as §1, §2, §3"}, "5-HT3A receptor D165K": {"biological_target": "T5, 5-HT3A receptor D165K (Homo sapiens, UniProt P46098, D160K)", "T5 sequence (P46098 24-478 D160K)": "T1 sequence (P46098 24-478) with D137K", "test": "radioligand saturation binding, transfected HEK293 membranes", "conditions": "[3H]-palonosetron saturation, 5-HT3A D165K, 4 °C, 24 h", "method": "as §1, §2, §3"}}, "note": "Numbering of substitutions follows the chain as printed."}
{"smiles": "O=C1c2cccc3c2[C@H](CCC3)CN1[C@@H]1CN2CCC1CC2", "note": "[Palonosetron]", "values": [{"measurement": "IC50", "setting": "[1]", "value": "0.34 ± 0.08", "unit": "nM"}, {"measurement": "Kd", "setting": "WT 5-HT3A receptor", "value": "0.32 ± 0.07", "unit": "nM"}, {"measurement": "Kd", "setting": "5-HT3A receptor Y73S", "value": "0.61 ± 0.11", "unit": "nM"}, {"measurement": "Kd", "setting": "5-HT3A receptor S163A", "value": "0.3 ± 0.08", "unit": "nM"}, {"measurement": "Kd", "setting": "5-HT3A receptor D165K", "value": "0.36 ± 0.02", "unit": "nM"}]}
